Reference: ChEMBL document CHEMBL1201862, “PubChem BioAssay data set” (2004)
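Following 48 hours of exposure in 96-well plates, responses at five concentrations were used to interpolate endpoints linearly. GI50: concentration for 50% inhibition of growth.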 Activity calls are given as the source filed them. Cut-off read from the data, not from the text of the source: active = GI50 up to about 1.1 µM and inactive = higher.

How the values were obtained:
Experiment in all cases: inhibition of tumour cell growth, NCI panel, 48 h
CAKI-1 = system: CAKI-1
HOP-62 = system: HOP-62
MDA-N = system: MDA-N
LOX IMVI = system: LOX IMVI
MDA-MB-231 = system: MDA-MB-231
HCC 2998 = system: HCC 2998
A498 = system: A498
MCF7 = system: MCF7
HCT-15 = system: HCT-15
PC-3 = system: PC-3
SNB-75 = system: SNB-75
HL-60 = system: HL-60
786-0 = system: 786-0
HOP-92 = system: HOP-92
SF-295 = system: SF-295
SK-MEL-28 = system: SK-MEL-28
OVCAR-4 = system: OVCAR-4
K562 = system: K562
SNB-19 = system: SNB-19
COLO 205 = system: COLO 205
T47D = system: T47D
MDA-MB-435 = system: MDA-MB-435
MOLT-4 = system: MOLT-4
NCI-H226 = system: NCI-H226
SF-268 = system: SF-268
OVCAR-3 = system: OVCAR-3
OVCAR-8 = system: OVCAR-8
OVCAR-5 = system: OVCAR-5
UACC-62 = system: UACC-62
SF-539 = system: SF-539
U-251 = system: U-251
NCI-H460 = system: NCI-H460
SW-620 = system: SW-620
SK-OV-3 = system: SK-OV-3
RXF 393 = system: RXF 393
Malme-3M = system: Malme-3M
NCI-H522 = system: NCI-H522
NCI/ADR-RES = system: NCI/ADR-RES
TK-10 = system: TK-10
SR = system: SR
BT-549 = system: BT-549
IGROV-1 = system: IGROV-1
RPMI-8226 = system: RPMI-8226
A549 = system: A549
M14 = system: M14
CCRF-CEM = system: CCRF-CEM
NCI-H23 = system: NCI-H23
SN12C = system: SN12C
Hs-578T = system: Hs-578T
HT-29 = system: HT-29
EKVX = system: EKVX
HCT-116 = system: HCT-116
DU-145 = system: DU-145
SK-MEL-5 = system: SK-MEL-5
SK-MEL-2 = system: SK-MEL-2
ACHN = system: ACHN
KM12 = system: KM12
UACC-257 = system: UACC-257
UO-31 = system: UO-31

Structure (SMILES): COC1/C=C/C(C)C(C(C)C(OC)C(C)CCC(=O)C(C)C(CCC(=O)O)OC)OC(=O)/C=C/C=C(\C)CC(OC)CC2=CC(=O)O[C@@H](C(C)C(OC)CC(OC)/C=C/C(C)C(OC)C1)[C@H]2O (stereo partly specified)
- GI50 (CAKI-1): 0.269 µM (active)
- GI50 (HOP-62): 0.631 µM (active)
- GI50 (MDA-N): 0.6 µM (active)
- GI50 (LOX IMVI): 0.226 µM (active)
- GI50 (MDA-MB-231): 0.483 µM (active)
- GI50 (HCC 2998): 0.353 µM (active)
- GI50 (A498): 0.123 µM (active)
- GI50 (MCF7): 1.04 µM (active)
- GI50 (HCT-15): 740 nM
- GI50 (PC-3): 0.454 µM (active)
- GI50 (SNB-75): 0.16 µM (active)
- GI50 (HL-60): 0.185 µM (active)
- GI50 (786-0): 0.578 µM (active)
- GI50 (HOP-92): 0.372 µM (active)
- GI50 (SF-295): 0.859 µM (active)
- GI50 (SK-MEL-28): 0.792 µM (active)
- GI50 (OVCAR-4): 0.971 µM (active)
- GI50 (K562): 1.92 µM (inactive)
- GI50 (SNB-19): 0.679 µM (active)
- GI50 (COLO 205): 0.125 µM (active)
- GI50 (T47D): 2.56 µM (inactive)
- GI50 (MDA-MB-435): 0.748 µM (active)
- GI50 (MOLT-4): 0.467 µM (active)
- GI50 (NCI-H226): 0.695 µM (active)
- GI50 (SF-268): 0.284 µM (active)
- GI50 (OVCAR-3): 0.646 µM (active)
- GI50 (OVCAR-8): 2.21 µM (inactive)
- GI50 (OVCAR-5): > 5 µM (inactive)
- GI50 (UACC-62): 0.787 µM (active)
- GI50 (SF-539): 0.292 µM (active)
- GI50 (U-251): 0.249 µM (active)
- GI50 (NCI-H460): 0.43 µM (active)
- GI50 (SW-620): 0.607 µM (active)
- GI50 (SK-OV-3): 1.18 µM (inactive)
- GI50 (RXF 393): 0.583 µM (active)
- GI50 (Malme-3M): 0.592 µM (active)
- GI50 (NCI-H522): 1.37 µM (inactive)
- GI50 (NCI/ADR-RES): > 5 µM (inactive)
- GI50 (TK-10): 1.65 µM (inactive)
- GI50 (SR): 0.637 µM (active)
- GI50 (BT-549): 0.661 µM (active)
- GI50 (IGROV-1): 0.177 µM (active)
- GI50 (RPMI-8226): 0.242 µM (active)
- GI50 (A549): 0.332 µM (active)
- GI50 (M14): 630 nM (active)
- GI50 (CCRF-CEM): 0.181 µM (active)
- GI50 (NCI-H23): 1.61 µM (inactive)
- GI50 (SN12C): 0.733 µM (active)
- GI50 (Hs-578T): 0.499 µM (active)
- GI50 (HT-29): 0.284 µM (active)
- GI50 (EKVX): 2.22 µM (inactive)
- GI50 (HCT-116): 0.385 µM (active)
- GI50 (DU-145): 1.71 µM (inactive)
- GI50 (SK-MEL-5): 0.296 µM (active)
- GI50 (SK-MEL-2): 0.271 µM (active)
- GI50 (ACHN): 0.74 µM (active)
- GI50 (KM12): 2.19 µM (inactive)
- GI50 (UACC-257): 1.24 µM (inactive)

Structure (SMILES): N#C[BH2-][n+]1cn(C2CC(OP(=O)(O)OCC3OC(n4ccc(N)nc4=O)CC3O)C(CO)O2)c2nc(N)[nH]c(=O)c21 (stereo unspecified)
- GI50 (CAKI-1): > 100 µM (inactive)
- GI50 (HOP-62): > 100 µM (inactive)
- GI50 (MDA-N): > 100 µM (inactive)
- GI50 (LOX IMVI): > 100 µM (inactive)
- GI50 (MDA-MB-231): > 100 µM (inactive)
- GI50 (HCC 2998): > 100 µM (inactive)
- GI50 (A498): > 100 µM (inactive)
- GI50 (MCF7): > 100 µM (inactive)
- GI50 (HCT-15): > 100000 nM
- GI50 (PC-3): > 100 µM (inactive)
- GI50 (SNB-75): > 100 µM (inactive)
- GI50 (HL-60): > 100 µM (inactive)
- GI50 (786-0): > 100 µM (inactive)
- GI50 (HOP-92): > 100 µM (inactive)
- GI50 (SF-295): > 100 µM (inactive)
- GI50 (SK-MEL-28): > 100 µM (inactive)
- GI50 (OVCAR-4): > 100 µM (inactive)
- GI50 (K562): > 100 µM (inactive)
- GI50 (SNB-19): > 100 µM (inactive)
- GI50 (COLO 205): > 100 µM (inactive)
- GI50 (T47D): > 100 µM (inactive)
- GI50 (MDA-MB-435): > 100 µM (inactive)
- GI50 (MOLT-4): > 100 µM (inactive)
- GI50 (NCI-H226): > 100 µM (inactive)
- GI50 (SF-268): > 100 µM (inactive)
- GI50 (OVCAR-3): > 100 µM (inactive)
- GI50 (OVCAR-8): > 100 µM (inactive)
- GI50 (UO-31): > 100 µM (inactive)
- GI50 (OVCAR-5): > 100 µM (inactive)
- GI50 (UACC-62): > 100 µM (inactive)
- GI50 (SF-539): > 100 µM (inactive)
- GI50 (U-251): > 100 µM (inactive)
- GI50 (NCI-H460): > 100 µM (inactive)
- GI50 (SW-620): > 100 µM (inactive)
- GI50 (SK-OV-3): > 100 µM (inactive)
- GI50 (RXF 393): > 100 µM (inactive)
- GI50 (Malme-3M): > 100 µM (inactive)
- GI50 (NCI-H522): > 100 µM (inactive)
- GI50 (NCI/ADR-RES): > 100 µM (inactive)
- GI50 (TK-10): > 100 µM (inactive)
- GI50 (SR): > 100 µM (inactive)
- GI50 (BT-549): > 100 µM (inactive)
- GI50 (IGROV-1): > 100 µM (inactive)
- GI50 (RPMI-8226): > 100 µM (inactive)
- GI50 (A549): > 100 µM (inactive)
- GI50 (CCRF-CEM): > 100 µM (inactive)
- GI50 (NCI-H23): > 100 µM (inactive)
- GI50 (SN12C): > 100 µM (inactive)
- GI50 (Hs-578T): > 100 µM (inactive)
- GI50 (HT-29): > 100 µM (inactive)
- GI50 (EKVX): > 100 µM (inactive)
- GI50 (HCT-116): > 100 µM (inactive)
- GI50 (DU-145): > 100 µM (inactive)
- GI50 (SK-MEL-5): > 100 µM (inactive)
- GI50 (SK-MEL-2): > 100 µM (inactive)
- GI50 (ACHN): > 100 µM (inactive)
- GI50 (KM12): > 100 µM (inactive)
- GI50 (UACC-257): > 100 µM (inactive)
